Earlier results as cited in article PMC3341490 (Nuclear Medicine and Biology, 2012).

Tests used:
[1] = copper complex; ref [24]
[2] = system: GRPR-expressing, PC-3 xenografted tumors in SCID mice

O=C(O)CN1CCN(CC(=O)O)CCN(CC(=O)O)CC1 [NOTA, 1,4,7-triazacyclononane-1,4,7-triacetic acid]
stability constant (log K) [1]: 21.6

^64Cu-NO2A-Aoc-BN(7-14)
PC-3 tumor uptake ([2]; 1 hour, ref [18]-[19]): 3.59 % ID/g
retention of radioactivity in the tumor, relative to 1 h ([2]; 24 h vs 1 h, ref [19]): 28%

O=C(O)CN1CCN(CC(=O)O)CCN(CC(=O)O)CCN(CC(=O)O)CC1 [DOTA, 1,4,7,10-tetraazacyclododecane-1,4,7,10-tetraacetic acid]
stability constant (log K) [1]: 22.3

O=C(O)CN1CCCN(CC(=O)O)CCN(CC(=O)O)CCCN(CC(=O)O)CC1 [TETA]
stability constant (log K) [1]: 21.7
